# Like-named read-outs stand apart in the source and are kept apart here.
# Experiments:
# [1] = test system: lung function of subject having lung cancer
# Description: On Oct. 21, 2020, inhalation of the hydrogen gas was started using a hydrogen gas generator (Jobs-α, hydrogen concentration: about 4% to 5%, the amount of 100% hydrogen to be generated: 200 ml/min) manufactured by MiZ Company Limited (Ofuna, Kamakura). […]
# [2] = test system: lung function of subject having lung cancer; conditions: one month from start of inhalation, hydrogen about 1% to 2%, 3 to 6 hours per day
# Description: A person had surgery of colorectal cancer in 2018. Thereafter, the person was periodically examined for follow-up. […] From the day of examination, the person was treated with hydrogen gas inhalation for 3 to 6 hours per day using a hydrogen gas generator (Jobs-mini, hydrogen concentration: about 1% to 2%, the amount of 100% hydrogen to be generated: 30 ml/min).
# Lewis Lung Carcinoma = conditions: inhalation of low concentration (3.5%) hydrogen; Japanese Patent No. 6781485, Example 1; cited from earlier work
# [3] = room temperature, normal pressure; also printed as 1.6 mg/L; cited from earlier work
# [4] = Week 2, hydrogen about 4% to 5%, at least 3 hours per day
# [5] = Week 3, hydrogen about 4% to 5%, at least 3 hours per day
smiles,measurement,setting,value
"[HH] [hydrogen gas, molecular hydrogen]",tolerability of hydrogen gas inhalation,"[1]; Week 1, inhalation 5 hours per day, hydrogen concentration about 4% to 5%, person stage IV lung cancer",inhaled comfortably with no discomfort
same,amount of oxygen needed for oxygen inhalation,[1]; [4],reduced
same,breathing,[1]; [4],became easier
same,lung X-ray image change,[1]; [4],any significant change was not observed
same,state of breathing,[1]; [4],became better
same,amount of oxygen needed for oxygen inhalation,[1]; [5],reduced compared to that in the previous week
same,complicating inflammation reaction such as colitis,[1]; [5],improved
same,lung ventilatory function (doctors' determination from CT image and oxygen needed),[1]; [5],improved compared to that one month ago
same,shadows derived from pneumonia in chest CT image,[1]; [5],completely disappeared
same,breathing function,[2],normal values again
same,lung capacity,[2],normal values again
same,tumor markers,[2],normal numeric values again
same,lung cancer at pre-surgery examination,[2]; person,disappeared
same,metastasis,Lewis Lung Carcinoma,suppressed
same,concentration of hydrogen dissolved in water,[3],approximately 1.6 ppm

# Reference: patent US20220193120A1, “MOLECULAR HYDROGEN-CONTAINING COMPOSITION FOR MAINTAINING LUNG FUNCTION IN HUMAN LUNG CANCER AND/OR IMPROVING REDUCTION IN LUNG FUNCTION ATTRIBUTED TO HUMAN LUNG CANCER” (MiZ Company Limited, priority 2020, published 2022)
